Here are results for two molecules from patent publication US10837005B2, “Recombinant microorganism capable of producing methyl anthranilate and method of producing methyl anthranilate using the same” (priority 2019, dated 2020).

A short description of series [1]: Partition coefficient between aqueous-phase culture medium and organic-phase tributyrin. It is filed as physicochemical. The settings on record: aqueous phase: Carbon-free MR minimum medium, organic phase tributyrin. As to the method:
In order to solve the problem of toxicity of MANT, a two-phase aqueous organic culture system was used in the present invention (FIG. 5 in part a). Tributyrin was used as an organic solvent to extract MANT from the culture medium. Tributyrin extraction capacity was determined by measuring the partition coefficient between the aqueous medium of MANT and tributyrin, the solvent, and the result is shown in Table 2. Tributyrin is also capable of extracting ANT, but the amount of ANT extracted is very small compared to the amount of MANT and thus is negligible. […] The culture was carried out under the same conditions as in Example 1-2, except that, when IPTG was added, 10 mL of tributyrin was added therewith. MANT productivity was calculated on an aqueous phase basis (that is, Titer=Caq·Vaq+Corg·Vorg)/Vaq)).

The next series deals with E. coli. Briefly: MANT toxicity test on E. coli. Type of series: cell-based. How it is done: […]. The low resistance of E. coli to MANT could adversely affect E. coli mutations that produce MANT at high concentrations. Thus, E. coli was cultured in a modified culture system.
Series [2] deals with Pseudomonas putida KT2440.

In series [1] (pH 7.0), `COC(=O)c1ccccc1N` [MANT, Methyl anthranilate] gave a Partition coefficient of 420.1 ± 7.6. The “MANT concentration E. coli can withstand” value with E. coli is given as “up to 0.5 g/L”. For the same molecule, in the series on E. coli (E. coli exposed to various concentrations of MANT up to 1 g/L), the “final OD600 value” is reported as “significantly reduced”. For the same molecule, the “final OD600 value relative to base strain not exposed to MANT” value with E. coli (exposed to 0.5 g/L of MANT) is listed as “about one third”. Moreover, the “MANT concentration at which strain was not capable of growing” value in series [2] (P. putida KT2440) is given as 1.0 g/L. Further, the growth profile result is “concentration-dependent inhibition” in series [2] (P. putida KT2440, various MANT concentrations) and “concentration-dependent inhibition” in the series with C. glutamicum ATCC 13032 (C. glutamicum ATCC 13032, various MANT concentrations). Further, in the series on C. glutamicum ATCC 13032 (C. glutamicum), the “MANT concentration at which growth was completely inhibited” value stood at 2.0 g/L.

For `Nc1ccccc1C(=O)O` [Anthranilate, anthranilic acid], the Partition coefficient is recorded as 4.7 ± 0.2 in series [1] (pH 5.0), 0.1 ± 0.0 in series [1] (pH 7.0) and “Very low” in series [1] (pH 9.0).
